Measured values: patent US9962388B2, “Pyrrolopyrimidine compounds used as TLR7 agonist” (priority 2014, dated 2018)
pEC50: −log10 of the molar value.

Target: Toll-like receptor 7 (Homo sapiens (Human), UniProt Q9NYK1)
Test: Toll-like receptor 7 in vitro receptor binding activity screen (HEK-blue hTLR7 cell, alkaline phosphatase/Quanti-Blue readout)
Assay type: cell-based
Settings: HEK-blue hTLR7 cell, 24 h; read-out: TLR7 EC50
Experimental: Toll-Like Receptor 7 and Toll-Like Receptor 8 In Vitro Receptor Binding Activity Screen
HEK-blue hTLR7 cell and HEK-blue hTLR8 cell (available from InvivoGen)
1. Preparation of 96-well compound plate:
The compounds were gradient diluted with DMSO in 3-fold using liquid work station POD starting at a concentration of 10 mmol/L and 10 points were diluted (2nd column to 11th column, and each point was duplicated). At 12th column, 1 μL of 5 mg/mL positive compound R848 was added as positive control; and at 1st column, 1 μL of DMSO was added as negative control. Each well contained 1 μL of DMSO.
2. The cells in culture flask were collected and the cell density was diluted to 250,000 cells/mL.
3. 200 μL (50,000 cells/well) of cell suspension was added into prepared compound plate and the final concentration of DMSO in each well was 0.5%.
4. The culture plates containing cells and the compounds were incubated in CO2 incubator for 24 h at 37° C., 5% CO2.
5. After 24 h incubation, 20 μL of supernatant was removed from each well to a 96-well transparent assay plate. To each well of the assay plate was added 180 μL of Quanti-Blue reagent and the plate was incubated in an incubator at 37° C., 5% CO2 for 1 h.
6. After 1 h, the content of alkaline phosphatase in 20 μL of supernatant was determined using Microplate Reader OD650.
7. EC50 of each compound was obtained with Prism software.

Toll-like receptor 7, sequence (Q9NYK1 27-1049): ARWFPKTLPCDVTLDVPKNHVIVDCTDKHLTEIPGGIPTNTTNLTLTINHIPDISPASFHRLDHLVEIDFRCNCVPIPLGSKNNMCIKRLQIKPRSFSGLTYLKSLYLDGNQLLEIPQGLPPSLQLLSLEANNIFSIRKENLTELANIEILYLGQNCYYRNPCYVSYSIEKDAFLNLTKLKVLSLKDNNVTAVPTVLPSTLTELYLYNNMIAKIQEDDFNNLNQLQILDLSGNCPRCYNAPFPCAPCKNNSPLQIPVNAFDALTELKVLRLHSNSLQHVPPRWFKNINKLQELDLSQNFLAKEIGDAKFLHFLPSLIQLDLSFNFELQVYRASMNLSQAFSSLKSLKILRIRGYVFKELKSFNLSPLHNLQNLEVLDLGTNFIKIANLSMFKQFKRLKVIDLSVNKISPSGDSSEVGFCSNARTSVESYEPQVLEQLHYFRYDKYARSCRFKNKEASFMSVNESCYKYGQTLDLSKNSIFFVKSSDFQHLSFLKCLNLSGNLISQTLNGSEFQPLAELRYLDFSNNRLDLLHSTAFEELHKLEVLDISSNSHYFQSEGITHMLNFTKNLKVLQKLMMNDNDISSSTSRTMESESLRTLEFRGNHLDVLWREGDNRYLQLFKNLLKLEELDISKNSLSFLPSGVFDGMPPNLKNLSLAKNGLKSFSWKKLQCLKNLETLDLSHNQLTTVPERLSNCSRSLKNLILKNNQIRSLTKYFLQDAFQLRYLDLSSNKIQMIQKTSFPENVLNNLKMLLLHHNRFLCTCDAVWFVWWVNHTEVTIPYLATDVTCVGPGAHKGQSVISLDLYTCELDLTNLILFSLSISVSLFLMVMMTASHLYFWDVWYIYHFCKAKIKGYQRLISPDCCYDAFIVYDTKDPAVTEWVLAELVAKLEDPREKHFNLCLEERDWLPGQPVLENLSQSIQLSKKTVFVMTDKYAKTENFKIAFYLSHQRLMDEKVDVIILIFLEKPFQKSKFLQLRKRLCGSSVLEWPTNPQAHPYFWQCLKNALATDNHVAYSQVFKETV

CCCCOc1nc(N)c2[nH]cc(Cc3cccc(CN4CCN(C)CC4)c3)c2n1 [Example 1, 2-butoxy-7-(3-((4-methylpiperazine-1-yl)methyl)benzyl)-5H-pyrrolo[3,2-d]pyrimidine-4-amine] and CCCCOc1nc(N)c2[nH]cc(Cc3ccc(CN4CCN(C)CC4)cc3)c2n1 [Example 10, 2-butoxy-7-(4-((4-methylpiperazine-1-yl)methyl)benzyl)-5H-pyrrolo[3,2-d]pyrimidine-4-amine] fall in the same range of pEC50: 4.30 to 6.00 for the first, 4.30 to 6.00 for the second.

CCCCOc1nc(N)c2[nH]cc(Cc3cccc(CN4CCOCC4)c3)c2n1 [Example 2, 2-butoxy-7-(3-(morpholinomethyl)benzyl)-5H-pyrrolo[3,2-d]pyrimidine-4-amine] and CCCCOc1nc(N)c2[nH]cc(Cc3ccc(CN4CCOCC4)cc3)c2n1 [Example 9, 2-butoxy-7-(4-(morpholinomethyl)benzyl)-5H-pyrrolo[3,2-d]pyrimidine-4-amine] fall in the same range of pEC50: 4.30 to 6.00 for the first, 4.30 to 6.00 for the second.

CCCCOc1nc(N)c2[nH]cc(Cc3cccc(CN)c3)c2n1 [Example 3, 7-(3-(aminomethyl)benzyl)-2-butoxy-5H-pyrrolo[3,2-d]pyrimidine-4-amine] and CCCCOc1nc(N)c2[nH]cc(Cc3cccc(CCN4CCCC4)c3)c2n1 [Example 23, 2-butoxy-7-(3-(2-(pyrrolidine-1-yl)ethyl)benzyl)-5H-pyrrolo[3,2-d]pyrimidine-4-amine] fall in the same range of pEC50: 4.30 to 6.00 for the first, 4.30 to 6.00 for the second.

First: CCCCOc1nc(N)c2[nH]cc(Cc3ccc(CN4CCC(F)(F)C4)cc3)c2n1 [Example 5]
Second: CCCCOc1nc(N)c2[nH]cc(Cc3ccc(CN4CCC4)cc3)c2n1 [Example 14, 7-(4-(azetidin-1-ylmethyl)benzyl)-2-butoxy-5H-pyrrolo[3,2-d]pyrimidine-4-amine]
The pEC50 of the first is lower: 4.30 to 6.00 for the first, 6.00 to 7.00 for the second. The second is the more potent here.

CCCCOc1nc(N)c2[nH]cc(Cc3ccc(CN4CCC(F)C4)cc3)c2n1 (stereo not shown) [Example 6, 2-butoxy-7-(4-((3-fluoropyrrolidine-1-yl)methyl)benzyl)-5H-pyrrolo[3,2-d]pyrimidine-4-amine] and CCCCOc1nc(N)c2[nH]cc(Cc3ccc(CN4CCC(O)C4)cc3)c2n1 (stereo not shown) [Example 7, 1-(4-((4-amino-2-butoxy-5H-pyrrolo[3,2-d]pyrimidine-7-1)methyl)benzyl)pyrrolidine-3-ol] fall in the same range of pEC50: 6.00 to 7.00 for the first, 6.00 to 7.00 for the second.

CCCCOc1nc(N)c2[nH]cc(Cc3ccc(CN4CCCCC4)cc3)c2n1 [Example 8, 2-butoxy-7-(4-(piperidine-1-ylmethyl)benzyl)-5H-pyrrolo[3,2-d]pyrimidine-4-amine] and CCCCOc1nc(N)c2[nH]cc(Cc3ccc(CN4CCCN(C)CC4)cc3)c2n1 [Example 16, 2-butoxy-7-(4-((4-methyl-1,4-diazepan-1-yl)methyl)benzyl)-5H-pyrrolo[3,2-d]pyrimidine-4-amine] fall in the same range of pEC50: 6.00 to 7.00 for the first, 6.00 to 7.00 for the second.

CCCCOc1nc(N)c2[nH]cc(Cc3ccc(CN(C)C)cc3)c2n1 [Example 11, 2-butoxy-7-(4-((dimethylamino)methyl)benzyl)-5H-pyrrolo[3,2-d]pyrimidine-4-amine] and CCCCOc1nc(N)c2[nH]cc(Cc3ccc(CN(CC)CC)cc3)c2n1 [Example 12, 2-butoxy-7-(4-((diethylamino)methyl)benzyl)-5H-pyrrolo[3,2-d]pyrimidine-4-amine] fall in the same range of pEC50: 6.00 to 7.00 for the first, 6.00 to 7.00 for the second.

CCCCOc1nc(N)c2[nH]cc(Cc3ccc(CN(CCC)CCC)cc3)c2n1 [Example 13, 2-butoxy-7-(4-((dipropylamino)methyl)benzyl)-5H-pyrrolo[3,2-d]pyrimidine-4-amine] and CCCCOc1nc(N)c2[nH]cc(Cc3ccc(CN4CC(OC)C4)cc3)c2n1 [Example 15, 2-butoxy-7-(4-((3-methoxylazetidin-1-yl)methyl)benzyl)-5H-pyrrolo[3,2-d]pyrimidine-4-amine] fall in the same range of pEC50: 6.00 to 7.00 for the first, 6.00 to 7.00 for the second.

CCCCOc1nc(N)c2[nH]cc(Cc3ccc(CN4CC(C)OC(C)C4)cc3)c2n1 (stereo not shown) [Example 17, 2-butoxy-7-(4-((2,6-dimethylmorpholinyl)methyl)benzyl)-5H-pyrrolo[3,2-d]pyrimidine-4-amine] and CCCCOc1nc(N)c2[nH]cc(Cc3ccc(CN4C[C@@H]5C[C@H]4CO5)cc3)c2n1 [Example 18, 7-(4-((1 S,4S)-2-oxa-5-azabicyclo[2.2.1]heptane-5-ylmethyl)benzyl)-2-butoxy-5H-pyrrolo[3,2-d]pyrimidine-4-amine] fall in the same range of pEC50: 6.00 to 7.00 for the first, 6.00 to 7.00 for the second.

CCCCOc1nc(N)c2[nH]cc(Cc3ccc(CN4CCC(OC)CC4)cc3)c2n1 [Example 19, 2-butoxy-7-(4-((4-methoxylpiperidine-1-yl)methyl)benzyl)-5H-pyrrolo[3,2-d]pyrimidine-4-amine] and CCCCOc1nc(N)c2[nH]cc(Cc3ccc(CN4CCN(C(C)C)CC4)cc3)c2n1 [Example 20, 2-butoxy-7-(4-((4-isopropylpiperazine-1-yl)methyl)benzyl)-5H-pyrrolo[3,2-d]pyrimidine-4-amine] fall in the same range of pEC50: 6.00 to 7.00 for the first, 6.00 to 7.00 for the second.

CCCCOc1nc(N)c2[nH]cc(Cc3ccc(C(C)N4CCCC4)cc3)c2n1 (stereo not shown) [Example 24, 2-butoxy-7-(4-(1-(pyrrolidine-1-yl)ethyl)benzyl)-5H-pyrrolo[3,2-d]pyrimidine-4-amine] and CCCCOc1nc(N)c2[nH]cc(Cc3ccc(C4CCCN4C)cc3)c2n1 (stereo not shown) [Example 26, 2-butoxy-7-(4-(1-methylpyrrolidine-2-yl)benzyl)-5H-pyrrolo[3,2-d]pyrimidine-4-amine] fall in the same range of pEC50: 6.00 to 7.00 for the first, 6.00 to 7.00 for the second.

First: CCCCOc1nc(N)c2[nH]cc(Cc3ccc(C4CCN(C)CC4)cc3)c2n1 [Example 25, 2-butoxy-7-(4-(1-methylpiperidine-4-yl)benzyl)-5H-pyrrolo[3,2-d]pyrimidine-4-amine]
Second: CCCCOc1nc(N)c2[nH]cc(Cc3ccc(N4CCN(C)CC4=O)cc3)c2n1 [Example 27, 1-(4-((4-amino-2-butoxy-5H-pyrrolo[3,2-d]pyrimidine-7-yl)methyl)phenyl)-4-methylpiperazine-2-one]
The pEC50 of the first is higher: 7.00 to 9.00 for the first, 6.00 to 7.00 for the second. The first is the more potent here.

CCCCOc1nc(N)c2[nH]cc(Cc3ccc4c(c3)CCNC4)c2n1 [Example 32, 2-butoxy-7-((1,2,3,4-tetrahydroisoquinoline-6-yl)methyl)-5H-pyrrolo[3,2-d]pyrimidine-4-amine] and CCCCOc1nc(N)c2[nH]cc(Cc3ccc4c(c3)CCN(C)C4)c2n1 [Example 33, 2-butoxy-7-((2-methyl-1,2,3,4-tetrahydroisoquinoline-6-yl)methyl)-5H-pyrrolo[3,2-d]pyrimidine-4-amine] fall in the same range of pEC50: 6.00 to 7.00 for the first, 6.00 to 7.00 for the second.

CCCCOc1nc(N)c2[nH]cc(Cc3ccc4c(c3)CCN(CC)C4)c2n1 [Example 34, 2-butoxy-7-((2-ethyl-1,2,3,4-tetrahydroisoquinoline-6-yl)methyl)-5H-pyrrolo[3,2-d]pyrimidine-4-amine] and CCCCOc1nc(N)c2[nH]cc(Cc3ccc(CN4CCCC4)cn3)c2n1 [Example 40, 2-butoxy-7-((5-(pyrrolidine-1-ylmethyl)pyridine-2-yl)methyl)-5H-pyrrolo[3,2-d]pyrimidine-4-amine] fall in the same range of pEC50: 6.00 to 7.00 for the first, 6.00 to 7.00 for the second.

COCCOc1nc(N)c2[nH]cc(Cc3ccccc3)c2n1 [Example 35, 7-benzyl-2-(2-methoxylethoxyl)-5H-pyrrolo[3,2-d]pyrimidine-4-amine] and COCCOc1nc(N)c2[nH]cc(Cc3ccc(C)nc3)c2n1 [Example 36, 2-(2-methoxylethoxyl)-7-((6-methylpyridine-3-yl)methyl)-5H-pyrrolo[3,2-d]pyrimidine-4-amine] fall in the same range of pEC50: 4.30 to 6.00 for the first, 4.30 to 6.00 for the second.

First: COCCOc1nc(N)c2[nH]cc(Cc3ccc(Cl)cn3)c2n1 [Example 37, 7-((5-chloropyridine-2-yl)methyl)-2-(2-methoxylethoxyl)-5H-pyrrolo[3,2-d]pyrimidine-4-amine]
Second: COCCOc1nc(N)c2[nH]cc(Cc3ccc(CN4CCCC4)nc3)c2n1 [Example 38, 2-(2-methoxylethoxyl-)-7-((6-(pyrrolidine-1-ylmethyl)pyridine-3-yl)methyl)-5H-pyrrolo[3,2-d]pyrimidine-4-amine]
The pEC50 of the first is lower: 4.30 to 6.00 for the first, 6.00 to 7.00 for the second. The second is the more potent here.

Compared with COCCOc1nc(N)c2[nH]cc(Cc3ccc(N4CCN(C)CC4=O)cc3)c2n1 [Example 39, 1-(4-((4-amino-2-(2-methoxylethoxyl)-5H-pyrrolo[3,2-d]pyrimidine-7-yl)methyl)phenyl)-4-methylpiperazine-2-one], CCCCOc1nc(N)c2[nH]c(C#N)c(Cc3ccc(CN4CCN(C)CC4)cc3)c2n1 [Example 44, 4-amino-2-butoxy-7-(4-((4-methylpiperazine-1-yl)methyl)benzyl)-5H-pyrrolo[3,2-d]pyrimidine-6-carbonitrile] is higher in pEC50: 6.00 to 7.00 for the first, 7.00 to 9.00 for the second. The second is the more potent here.

CCCCOc1nc(N)c2[nH]c(C#N)c(Cc3ccc(CN4CCCC4)nc3)c2n1 [Example 41, 4-amino-2-butoxy-7-((6-(pyrrolidine-1-ylmethyl)pyridine-3-yl)methyl)-5H-pyrrolo[3,2-d]pyrimidine-6-carbonitrile] and CCCCOc1nc(N)c2[nH]c(C#N)c(Cc3ccc(CN4CCOCC4)cc3)c2n1 [Example 43, 4-amino-2-butoxy-7-(4-(morpholinomethyl)benzyl)-5H-pyrrolo[3,2-d]pyrimidine-6-carbonitrile] fall in the same range of pEC50: 7.00 to 9.00 for the first, 7.00 to 9.00 for the second.

Work on CCCCOc1nc(N)c2[nH]c(C(N)=O)c(Cc3ccc(CN4CCCC4)cc3)c2n1 [Example 45, 4-amino-2-butoxy-7-(4-(pyrrolidine-1-ylmethyl)benzyl)-5H-pyrrolo[3,2-d]pyrimidine-6-formamide] yielded a pEC50 of 6.00 to 7.00.
